What was measured:
rhinovirus [1] = assay: plaque reduction (PR) test; format: cell-based; conditions: Enterovirus; 50% of the effective dose estimated from dose response curve; plaque numbers as percentages of a control; monolayer cell culture, compound in nutrient agarose overlay; read-out: PR(ED50)
Protocol: Activity may be detected by the plaque inhibition (PI) test and measured by the plaque reduction (PR) test. Both assays involve the formation of a monolayer cell culture in a petri dish followed by infection with a virus suspension, and then overlaying the culture with nutrient agarose in the form of a gel. This gel ensures that there is no spread of virus throughout the culture and thus areas of localised cell destruction or plaques are formed. Detectable activity is measured with the plaque reduction assay. A range of concentrations of compound of known molarity are incorporated in the nutrient agarose overlay. Plaque suppression is proportional to compound concentration. Plaque numbers are expressed as percentages of a control, and a dose response curve may be drawn. From this curve 50% of the effective dose (ED50) may be estimated.

rhinovirus [2] = assay: Intranasal Administration-Simulation in vitro (plaque inhibition, compound on petri dish lid); format: cell-based; conditions: 1 μg in ethanol applied to petri dish lids, ethanol evaporated; cell sheet covered with agarose gel
Source text: Activity may be detected by the plaque inhibition (PI) test and measured by the plaque reduction (PR) test. Both assays involve the formation of a monolayer cell culture in a petri dish followed by infection with a virus suspension, and then overlaying the culture with nutrient agarose in the form of a gel. This gel ensures that there is no spread of virus throughout the culture and thus areas of localised cell destruction or plaques are formed. In the plaque inhibition test a filter paper disc which holds 0.01 ml when impregnated with a solution of compound is placed on top of the agarose gel. The compound may then diffuse throughout the gel so that its greatest concentration will be around the disc and its lowest concentration towards the periphery of the petri dish. The efficacy of the compound may be detected by observing the zone of inhibition of plaque formation. Petri dishes were prepared, as for the plaque inhibition test and the confluent sheet of cells was covered with a layer of agarose gel. The compound, 2-(3-pyridyl)chroman (1 μg) was dissolved in ethanol, and applied to the lids of the petri dishes. When the ethanol had evaporated, leaving the compound spread over the inside of the lids, these were replaced on the petri dishes.

Row | Structure (SMILES) | EC50 (rhinovirus [1]) [nM] | inhibition of plaque formulation (rhinovirus [2])
1 | [O-][n+]1cccc(C2CCc3ccccc3O2)c1 (racemic) [2-(3-pyridyl)chroman N--oxide, 2-(3-pyridyl)chroman N-oxide] | 1100 | –
2 | c1cncc(C2CCc3ccccc3O2)c1 (stereo not shown) [2-(3-pyridyl)chroman] | 390 | total inhibition
3 | Clc1ccc2c(c1)CCC(c1cccnc1)O2 (stereo not shown) [6-chloro-2-(3-pyridyl)chroman] | 42 | –
